Laboratory results reported in paper PMC12626888, “Discovery of iridoid cyclase completes the iridoid pathway in asterids” (Nature Plants, 2025).

Legend:
Assay type in all cases: biochemical
LjICYC [1] = biological target: T1, LjICYC (Lonicera japonica, UniProt Z9XP04JJ76); test: GC-MS of 7S-cis-trans nepetalactol formed in coupled assay with CrISY; settings: enol generated in situ from 0.5 mM 8-oxogeranial by CrISY with 1 mM NADPH; 2 uM ICYC; 100 mM MOPS pH 7.5; 30 °C; 3 h
T1 construct: synthetic full-length gene in pOPINF, His-tagged, E. coli SoluBL21 (DE3), Ni-NTA
T1 sequence (Z9XP04JJ76 1-260): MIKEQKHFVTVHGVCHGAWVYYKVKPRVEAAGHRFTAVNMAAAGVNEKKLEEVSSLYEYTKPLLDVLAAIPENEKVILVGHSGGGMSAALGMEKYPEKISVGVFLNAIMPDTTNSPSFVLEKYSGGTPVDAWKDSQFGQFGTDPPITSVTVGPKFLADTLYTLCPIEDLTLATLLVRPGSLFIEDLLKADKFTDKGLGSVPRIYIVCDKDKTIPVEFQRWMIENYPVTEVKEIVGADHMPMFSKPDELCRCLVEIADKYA

CrICYC [2] = biological target: T2, CrICYC (Catharanthus roseus, UniProt Z9BZX6L7S3); test: as above; settings: enol generated in situ from 0.5 mM 8-oxogeranial by CrISY with 1 mM NADPH; 2 uM ICYC; 100 mM MOPS pH 7.5; 30 °C; 3 h
T2 construct: full-length CDS in pOPINF, His-tagged, E. coli SoluBL21 (DE3), Ni-NTA
T2 sequence (Z9BZX6L7S3 1-258): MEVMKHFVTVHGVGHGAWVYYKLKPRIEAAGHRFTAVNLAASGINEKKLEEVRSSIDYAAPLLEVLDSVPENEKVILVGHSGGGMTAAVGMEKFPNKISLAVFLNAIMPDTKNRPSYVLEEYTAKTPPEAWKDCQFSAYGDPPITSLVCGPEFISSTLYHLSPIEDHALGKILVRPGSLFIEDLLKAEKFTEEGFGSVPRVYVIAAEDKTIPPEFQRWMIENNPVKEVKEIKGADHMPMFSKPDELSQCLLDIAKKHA

VcICYC [3] = biological target: T3, VcICYC (Vaccinium corymbosum, UniProt Z9DZC4CR80); test: as above; settings: enol generated in situ from 0.5 mM 8-oxogeranial by CrISY with 1 mM NADPH; 2 uM ICYC; 100 mM MOPS pH 7.5; 30 °C; 3 h
T3 construct: synthetic full-length gene in pOPINF, His-tagged, E. coli SoluBL21 (DE3), Ni-NTA
T3 sequence (Z9DZC4CR80 1-256): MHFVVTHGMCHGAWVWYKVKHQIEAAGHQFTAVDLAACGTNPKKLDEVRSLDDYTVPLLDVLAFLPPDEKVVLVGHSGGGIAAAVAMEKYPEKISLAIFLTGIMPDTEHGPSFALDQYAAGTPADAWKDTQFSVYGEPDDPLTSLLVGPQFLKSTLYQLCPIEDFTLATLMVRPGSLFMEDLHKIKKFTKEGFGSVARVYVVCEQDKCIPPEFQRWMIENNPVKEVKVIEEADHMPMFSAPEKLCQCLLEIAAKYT

CiICYC [4] = biological target: T4, CiICYC (Carapichea ipecacuanha, UniProt Z9ZM09DHC0); test: as above; settings: enol generated in situ from 0.5 mM 8-oxogeranial by CrISY with 1 mM NADPH; 2 uM ICYC; 100 mM MOPS pH 7.5; 30 °C; 3 h
T4 construct: full-length CDS in pOPINF, His-tagged, E. coli SoluBL21 (DE3), Ni-NTA
T4 sequence (Z9ZM09DHC0 1-260): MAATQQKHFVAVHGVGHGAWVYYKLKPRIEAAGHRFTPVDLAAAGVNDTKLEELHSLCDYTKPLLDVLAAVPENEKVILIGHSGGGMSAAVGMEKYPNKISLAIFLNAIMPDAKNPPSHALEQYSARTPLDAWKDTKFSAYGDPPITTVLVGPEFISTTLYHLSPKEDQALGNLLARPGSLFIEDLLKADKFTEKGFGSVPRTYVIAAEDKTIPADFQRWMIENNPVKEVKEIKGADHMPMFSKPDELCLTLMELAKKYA

AsICYC [5] = biological target: T5, AsICYC (Alangium salviifolium, UniProt Z9MAI7V5A1); test: as above; settings: enol generated in situ from 0.5 mM 8-oxogeranial by CrISY with 1 mM NADPH; 2 uM ICYC; 100 mM MOPS pH 7.5; 30 °C; 3 h
T5 construct: full-length CDS in pOPINF, His-tagged, E. coli SoluBL21 (DE3), Ni-NTA
T5 sequence (Z9MAI7V5A1 1-262): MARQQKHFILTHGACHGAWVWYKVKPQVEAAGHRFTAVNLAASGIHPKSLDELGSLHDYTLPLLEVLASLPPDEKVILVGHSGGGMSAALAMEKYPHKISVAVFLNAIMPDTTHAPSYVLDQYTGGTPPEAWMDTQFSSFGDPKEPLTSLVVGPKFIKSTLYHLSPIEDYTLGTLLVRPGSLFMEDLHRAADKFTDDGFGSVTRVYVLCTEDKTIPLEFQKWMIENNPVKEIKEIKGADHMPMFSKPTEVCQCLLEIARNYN

AmICYC [6] = biological target: T6, AmICYC (Antirrhinum majus, UniProt Z9RFY5ZUY7); test: GC-MS of 7R-cis-cis nepetalactol formed in coupled assay with AmISY; settings: enol generated in situ from 0.5 mM 8-oxogeranial by AmISY with 1 mM NADPH; 2 uM ICYC; 100 mM MOPS pH 7.5; 30 °C; 3 h
T6 construct: synthetic full-length gene in pOPINF, His-tagged, E. coli SoluBL21 (DE3), Ni-NTA
T6 sequence (Z9RFY5ZUY7 1-261): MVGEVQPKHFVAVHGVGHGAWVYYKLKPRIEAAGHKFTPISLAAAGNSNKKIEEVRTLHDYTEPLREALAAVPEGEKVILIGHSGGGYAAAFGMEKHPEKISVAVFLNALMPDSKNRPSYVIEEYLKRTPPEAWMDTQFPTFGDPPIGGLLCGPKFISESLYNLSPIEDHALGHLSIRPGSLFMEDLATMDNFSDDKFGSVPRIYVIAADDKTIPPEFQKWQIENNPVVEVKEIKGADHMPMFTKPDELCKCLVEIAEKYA

SiICYC [7] = biological target: T7, SiICYC (Sesamum indicum, UniProt A0A6I9UJQ5); test: as above; settings: enol generated in situ from 0.5 mM 8-oxogeranial by AmISY with 1 mM NADPH; 2 uM ICYC; 100 mM MOPS pH 7.5; 30 °C; 3 h
T7 construct: gene LOC105177689; synthetic full-length gene in pOPINF, His-tagged, E. coli SoluBL21 (DE3), Ni-NTA

AmISY = biological target: T8, AmISY (Antirrhinum majus, UniProt A0A221J5P3); test: GC-MS of products; settings: 0.5 mM 8-oxogeranial; 1 mM NADPH; 0.5 uM AmISY; 100 mM MOPS pH 7.5; 30 °C; 3 h
T8 construct: gene ISY; recombinant, E. coli, pOPINF His-tagged
T8 sequence (A0A221J5P3 1-387): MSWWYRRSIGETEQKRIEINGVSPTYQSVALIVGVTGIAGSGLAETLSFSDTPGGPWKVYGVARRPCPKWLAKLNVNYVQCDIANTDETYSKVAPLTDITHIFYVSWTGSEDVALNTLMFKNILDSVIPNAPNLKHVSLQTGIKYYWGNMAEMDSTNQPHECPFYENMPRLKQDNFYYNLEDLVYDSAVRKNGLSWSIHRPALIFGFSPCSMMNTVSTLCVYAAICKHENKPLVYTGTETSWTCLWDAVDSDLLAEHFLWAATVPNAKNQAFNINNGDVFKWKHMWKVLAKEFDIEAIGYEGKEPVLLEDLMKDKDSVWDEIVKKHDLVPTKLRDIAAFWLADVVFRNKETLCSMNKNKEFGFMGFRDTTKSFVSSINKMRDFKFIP

CrISY = biological target: T9, CrISY (Catharanthus roseus, UniProt K7WDL7); test: GC-MS of products; settings: 0.5 mM 8-oxogeranial; 1 mM NADPH; 0.25 uM CrISY; 100 mM MOPS pH 7.5; 30 °C; 3 h
T9 construct: recombinant, E. coli, pOPINF His-tagged

SiICYC [8] = biological target: T7, SiICYC; test: spectrophotometric esterase assay, […] nm; settings: 2 mM substrate; 0.5 uM enzyme; 100 mM HEPES pH 7; 1 mM CaCl2; 25 °C
VcICYC [9] = biological target: T3, VcICYC; test: spectrophotometric esterase assay, […] nm; settings: 2 mM substrate; 0.5 uM enzyme; 100 mM HEPES pH 7; 1 mM CaCl2; 25 °C
AmICYC [10] = biological target: T6, AmICYC; test: spectrophotometric esterase assay, […] nm; settings: 2 mM substrate; 0.5 uM enzyme; 100 mM HEPES pH 7; 1 mM CaCl2; 25 °C
AsICYC [11] = biological target: T5, AsICYC; test: spectrophotometric esterase assay, […] nm; settings: 2 mM substrate; 0.5 uM enzyme; 100 mM HEPES pH 7; 1 mM CaCl2; 25 °C
CrICYC [12] = biological target: T2, CrICYC; test: spectrophotometric esterase assay, […] nm; settings: 2 mM substrate; 0.5 uM enzyme; 100 mM HEPES pH 7; 1 mM CaCl2; 25 °C
LjICYC [13] = biological target: T1, LjICYC; test: spectrophotometric esterase assay, […] nm; settings: 2 mM substrate; 0.5 uM enzyme; 100 mM HEPES pH 7; 1 mM CaCl2; 25 °C
CiICYC [14] = biological target: T4, CiICYC; test: spectrophotometric esterase assay, […] nm; settings: 2 mM substrate; 0.5 uM enzyme; 100 mM HEPES pH 7; 1 mM CaCl2; 25 °C

T7 sequence (A0A6I9UJQ5 entry or part of it): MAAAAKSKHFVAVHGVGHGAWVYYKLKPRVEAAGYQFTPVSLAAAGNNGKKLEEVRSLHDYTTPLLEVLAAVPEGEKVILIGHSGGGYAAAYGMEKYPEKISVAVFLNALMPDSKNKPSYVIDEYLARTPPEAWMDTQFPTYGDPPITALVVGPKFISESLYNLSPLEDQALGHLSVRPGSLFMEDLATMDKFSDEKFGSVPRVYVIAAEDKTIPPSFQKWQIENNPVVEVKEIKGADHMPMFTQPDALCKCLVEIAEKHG
T9 sequence (K7WDL7 whole entry): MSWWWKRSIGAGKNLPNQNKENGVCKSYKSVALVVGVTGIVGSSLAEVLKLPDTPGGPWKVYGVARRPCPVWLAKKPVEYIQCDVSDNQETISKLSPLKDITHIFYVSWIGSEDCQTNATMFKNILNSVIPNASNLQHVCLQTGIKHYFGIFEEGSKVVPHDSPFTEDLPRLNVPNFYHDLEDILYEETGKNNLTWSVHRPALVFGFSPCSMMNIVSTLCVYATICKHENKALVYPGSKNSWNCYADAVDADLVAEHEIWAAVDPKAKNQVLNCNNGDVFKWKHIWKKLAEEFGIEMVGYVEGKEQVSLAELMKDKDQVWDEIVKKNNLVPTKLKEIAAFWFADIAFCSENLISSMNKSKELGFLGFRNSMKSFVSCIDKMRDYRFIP

## C/C(C=O)=C\CC[C@H](C)/C=C/O [S-8-oxocitronellyl enol]
LjICYC [1]
  GC-MS of 7S-cis-trans nepetalactol formed in coupled assay with CrISY: any of the ICYC orthologues, 7S-cis-trans (7S, 4aS, 7aS) nepetalactol accumulation was substantially increased
CrICYC [2]
  GC-MS of 7S-cis-trans nepetalactol formed in coupled assay with CrISY: any of the ICYC orthologues, 7S-cis-trans (7S, 4aS, 7aS) nepetalactol accumulation was substantially increased
VcICYC [3]
  GC-MS of 7S-cis-trans nepetalactol formed in coupled assay with CrISY: any of the ICYC orthologues, 7S-cis-trans (7S, 4aS, 7aS) nepetalactol accumulation was substantially increased
CiICYC [4]
  GC-MS of 7S-cis-trans nepetalactol formed in coupled assay with CrISY: any of the ICYC orthologues, 7S-cis-trans (7S, 4aS, 7aS) nepetalactol accumulation was substantially increased
AsICYC [5]
  GC-MS of 7S-cis-trans nepetalactol formed in coupled assay with CrISY: any of the ICYC orthologues, 7S-cis-trans (7S, 4aS, 7aS) nepetalactol accumulation was substantially increased

## C/C(C=O)=C\CC[C@@H](C)/C=C/O [R-8-oxocitronellyl enol]
AmICYC [6]
  GC-MS of 7R-cis-cis nepetalactol formed in coupled assay with AmISY: When AmISY was assayed with ICYC orthologues, a new peak appeared
SiICYC [7]
  GC-MS of 7R-cis-cis nepetalactol formed in coupled assay with AmISY: When AmISY was assayed with ICYC orthologues, a new peak appeared

## C/C(C=O)=C\CC/C(C)=C/C=O [8-oxogeranial]
AmISY
  GC-MS of products: CrISY and AmISY reduce 8-oxogeranial to form the unstable intermediate S- or R-8-oxocitronellyl enol
CrISY
  GC-MS of products: CrISY and AmISY reduce 8-oxogeranial to form the unstable intermediate S- or R-8-oxocitronellyl enol

## CC(=O)Oc1ccc([N+](=O)[O-])cc1 [4-nitrophenyl acetate]
SiICYC [8]
  spectrophotometric esterase assay, 405 nm: All ICYC orthologues showed esterase activity when tested with the model substrate 4-nitrophenyl acetate
VcICYC [9]
  spectrophotometric esterase assay, 405 nm: All ICYC orthologues showed esterase activity when tested with the model substrate 4-nitrophenyl acetate
AmICYC [10]
  spectrophotometric esterase assay, 405 nm: All ICYC orthologues showed esterase activity when tested with the model substrate 4-nitrophenyl acetate
AsICYC [11]
  spectrophotometric esterase assay, 405 nm: All ICYC orthologues showed esterase activity when tested with the model substrate 4-nitrophenyl acetate
CrICYC [12]
  spectrophotometric esterase assay, 405 nm: All ICYC orthologues showed esterase activity when tested with the model substrate 4-nitrophenyl acetate
LjICYC [13]
  spectrophotometric esterase assay, 405 nm: All ICYC orthologues showed esterase activity when tested with the model substrate 4-nitrophenyl acetate
CiICYC [14]
  spectrophotometric esterase assay, 405 nm: All ICYC orthologues showed esterase activity when tested with the model substrate 4-nitrophenyl acetate
